Columns and labels:
[1] = biological target: T1, Lysophosphatidylserine lipase ABHD12 (Mus musculus) (UniProt Q99LR1); details: Brain, 5 uM
T1 sequence (whole entry): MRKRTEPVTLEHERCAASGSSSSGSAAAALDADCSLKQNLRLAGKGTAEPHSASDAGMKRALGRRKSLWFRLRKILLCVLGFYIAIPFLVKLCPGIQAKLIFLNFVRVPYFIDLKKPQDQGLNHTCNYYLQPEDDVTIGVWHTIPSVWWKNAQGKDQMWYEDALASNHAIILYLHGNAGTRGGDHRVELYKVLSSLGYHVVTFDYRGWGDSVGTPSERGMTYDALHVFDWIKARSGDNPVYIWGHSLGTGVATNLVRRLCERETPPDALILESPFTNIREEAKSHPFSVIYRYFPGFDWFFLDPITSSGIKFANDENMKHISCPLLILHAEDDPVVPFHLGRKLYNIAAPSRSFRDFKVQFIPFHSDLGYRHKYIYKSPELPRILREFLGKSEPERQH
Description: Inhibition of ABHD12 in mouse brain assessed as reduction in spectral count at 5 uM treated for 30 mins by ABPP-MudPIT assay relative to control

[2] = biological target: T2, Phosphatidylserine lipase ABHD16A (Mus musculus) (UniProt Q9Z1Q2); details: Brain, 5 uM
T2 sequence (whole entry): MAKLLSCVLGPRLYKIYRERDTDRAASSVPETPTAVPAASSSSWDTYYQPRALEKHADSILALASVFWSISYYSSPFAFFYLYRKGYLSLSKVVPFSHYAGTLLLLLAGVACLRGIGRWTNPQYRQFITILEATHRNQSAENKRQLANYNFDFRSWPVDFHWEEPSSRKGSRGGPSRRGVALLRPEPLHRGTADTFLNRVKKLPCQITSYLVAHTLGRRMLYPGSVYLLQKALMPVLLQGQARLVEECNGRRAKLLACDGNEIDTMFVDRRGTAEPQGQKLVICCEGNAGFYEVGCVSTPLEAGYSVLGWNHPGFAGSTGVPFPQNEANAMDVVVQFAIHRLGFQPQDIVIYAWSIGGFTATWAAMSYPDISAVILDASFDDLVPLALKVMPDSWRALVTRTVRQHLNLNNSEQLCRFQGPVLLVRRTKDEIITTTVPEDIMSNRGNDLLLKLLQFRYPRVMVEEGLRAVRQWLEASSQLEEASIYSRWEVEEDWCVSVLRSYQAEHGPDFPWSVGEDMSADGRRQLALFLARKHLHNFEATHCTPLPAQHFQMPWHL
Description: Inhibition of BAT5 in mouse brain assessed as reduction in spectral count at 5 uM treated for 30 mins by ABPP-MudPIT assay relative to control

`CCCCCCCCCCC[C@@H](C[C@@H]1OC(=O)[C@H]1CCCCCC)OC(=O)[C@H](CC(C)C)NC=O` [ORLISTAT] showed an inhibition [1] of over 60% and an inhibition [2] of over 60%.

From ChEMBL document CHEMBL1151781, “Selectivity of inhibitors of endocannabinoid biosynthesis evaluated by activity-based protein profiling” (Bioorg Med Chem Lett, 2008)
